Converted amounts (≈) assume the structure as drawn.
Tests used:
Assay type in all cases: functional
Candida albicans [1] = experiment: Antifungal activity against Candida albicans ATCC 90023 after 24 hrs by two fold serial dilution method; details: ATCC 90023, 24 h
Pseudomonas aeruginosa [2] = experiment: Antibacterial activity against Pseudomonas aeruginosa after 24 hrs by two fold serial dilution method
Candida parapsilosis = experiment: Antifungal activity against Candida parapsilosis ATCC 22019 after 24 hrs by two fold serial dilution method; details: ATCC 22019, 24 h
Staphylococcus aureus [3] = experiment: Antibacterial activity against methicillin-resistant Staphylococcus aureus N315 after 24 hrs by two fold serial dilution method; details: N315, 24 h
Klebsiella pneumoniae = experiment: Antibacterial activity against Klebsiella pneumoniae after 24 hrs by two fold serial dilution method
Acinetobacter baumannii = experiment: Antibacterial activity against Acinetobacter baumannii after 24 hrs by two fold serial dilution method
Staphylococcus aureus [4] = experiment: Antibacterial activity against Staphylococcus aureus ATCC 25923 after 24 hrs by two fold serial dilution method; details: ATCC 25923, 24 h
Escherichia coli [5] = experiment: Antibacterial activity against Escherichia coli ATCC 25922 after 24 hrs by two fold serial dilution method; details: ATCC 25922, 24 h
Pseudomonas aeruginosa [6] = experiment: Antibacterial activity against Pseudomonas aeruginosa ATCC 27853 after 24 hrs by two fold serial dilution method; details: ATCC 27853, 24 h
Candida albicans [7] = experiment: Antifungal activity against Candida albicans after 24 hrs by two fold serial dilution method
Staphylococcus aureus [8] = experiment: Antibacterial activity against Staphylococcus aureus ATCC 29213 after 24 hrs by two fold serial dilution method; details: ATCC 29213, 24 h
Escherichia coli [9] = experiment: Antibacterial activity against Escherichia coli after 24 hrs by two fold serial dilution method
Candida tropicalis = experiment: Antifungal activity against Candida tropicalis after 24 hrs by two fold serial dilution method
Staphylococcus aureus [10] = experiment: Antibacterial activity against Staphylococcus aureus after 24 hrs by two fold serial dilution method
Enterococcus faecalis = experiment: Antibacterial activity against Enterococcus faecalis after 24 hrs by two fold serial dilution method
Aspergillus fumigatus = experiment: Antifungal activity against Aspergillus fumigatus after 24 hrs by two fold serial dilution method

SMILES	MIC80 (Candida albicans [1])	MIC (Pseudomonas aeruginosa [2])	MIC80 (Candida parapsilosis)	MIC (Staphylococcus aureus [3])	MIC (Klebsiella pneumoniae)	MIC (Acinetobacter baumannii)	MIC (Staphylococcus aureus [4])	MIC (Escherichia coli [5])	MIC (Pseudomonas aeruginosa [6])	MIC80 (Candida albicans [7])	MIC (Staphylococcus aureus [8])	MIC (Escherichia coli [9])	MIC80 (Candida tropicalis)	MIC (Staphylococcus aureus [10])	MIC (Enterococcus faecalis)	MIC80 (Aspergillus fumigatus)
Cc1nc2ccccc2n1CCn1cnc2c(N3CCOCC3)ncnc21	128 µg/mL (≈ 352 µM)	256 µg/mL (≈ 704 µM)	512 µg/mL (≈ 1410 µM)	512 µg/mL (≈ 1410 µM)	256 µg/mL (≈ 704 µM)	256 µg/mL (≈ 704 µM)	32 µg/mL (≈ 88.1 µM)	256 µg/mL (≈ 704 µM)	256 µg/mL (≈ 704 µM)	128 µg/mL (≈ 352 µM)	128 µg/mL (≈ 352 µM)	512 µg/mL (≈ 1410 µM)	256 µg/mL (≈ 704 µM)	256 µg/mL (≈ 704 µM)	256 µg/mL (≈ 704 µM)	256 µg/mL (≈ 704 µM)
FC(F)(F)c1nc2ccccc2n1CCn1cnc2c(N3CCOCC3)ncnc21	256 µg/mL (≈ 613 µM)	128 µg/mL (≈ 307 µM)	128 µg/mL (≈ 307 µM)	256 µg/mL (≈ 613 µM)	64 µg/mL (≈ 153 µM)	64 µg/mL (≈ 153 µM)	64 µg/mL (≈ 153 µM)	128 µg/mL (≈ 307 µM)	64 µg/mL (≈ 153 µM)	256 µg/mL (≈ 613 µM)	128 µg/mL (≈ 307 µM)	32 µg/mL (≈ 76.7 µM)	256 µg/mL (≈ 613 µM)	32 µg/mL (≈ 76.7 µM)	64 µg/mL (≈ 153 µM)	256 µg/mL (≈ 613 µM)
CCn1cc(C(=O)O)c(=O)c2cc(F)c(N3CCNCC3)cc21 [NORFLOXACIN]	–	4 µg/mL (≈ 12.5 µM)	–	> 512 µg/mL	> 512 µg/mL	32 µg/mL (≈ 100 µM)	32 µg/mL (≈ 100 µM)	1 µg/mL (≈ 3.13 µM)	512 µg/mL (≈ 1600 µM)	–	8 µg/mL (≈ 25.1 µM)	512 µg/mL (≈ 1600 µM)	–	64 µg/mL (≈ 200 µM)	256 µg/mL (≈ 802 µM)	–
Cc1cc2ncn(CCn3cnc4c(N5CCOCC5)ncnc43)c2cc1C	128 µg/mL (≈ 339 µM)	32 µg/mL (≈ 84.8 µM)	256 µg/mL (≈ 678 µM)	256 µg/mL (≈ 678 µM)	64 µg/mL (≈ 170 µM)	256 µg/mL (≈ 678 µM)	256 µg/mL (≈ 678 µM)	256 µg/mL (≈ 678 µM)	128 µg/mL (≈ 339 µM)	256 µg/mL (≈ 678 µM)	128 µg/mL (≈ 339 µM)	256 µg/mL (≈ 678 µM)	128 µg/mL (≈ 339 µM)	256 µg/mL (≈ 678 µM)	128 µg/mL (≈ 339 µM)	128 µg/mL (≈ 339 µM)
Clc1cccc(Cn2c(Cn3cnc4c(N5CCOCC5)ncnc43)nc3ccccc32)c1	128 µg/mL (≈ 278 µM)	512 µg/mL (≈ 1110 µM)	512 µg/mL (≈ 1110 µM)	512 µg/mL (≈ 1110 µM)	128 µg/mL (≈ 278 µM)	256 µg/mL (≈ 557 µM)	128 µg/mL (≈ 278 µM)	256 µg/mL (≈ 557 µM)	256 µg/mL (≈ 557 µM)	512 µg/mL (≈ 1110 µM)	128 µg/mL (≈ 278 µM)	256 µg/mL (≈ 557 µM)	128 µg/mL (≈ 278 µM)	256 µg/mL (≈ 557 µM)	128 µg/mL (≈ 278 µM)	256 µg/mL (≈ 557 µM)
c1ccc(Cn2c(Cn3cnc4c(N5CCOCC5)ncnc43)nc3ccccc32)cc1	256 µg/mL (≈ 602 µM)	256 µg/mL (≈ 602 µM)	512 µg/mL (≈ 1200 µM)	256 µg/mL (≈ 602 µM)	128 µg/mL (≈ 301 µM)	256 µg/mL (≈ 602 µM)	512 µg/mL (≈ 1200 µM)	256 µg/mL (≈ 602 µM)	128 µg/mL (≈ 301 µM)	256 µg/mL (≈ 602 µM)	256 µg/mL (≈ 602 µM)	256 µg/mL (≈ 602 µM)	128 µg/mL (≈ 301 µM)	512 µg/mL (≈ 1200 µM)	128 µg/mL (≈ 301 µM)	512 µg/mL (≈ 1200 µM)
CCCCCCCCCCn1c(Cn2cnc3c(N4CCOCC4)ncnc32)nc2ccccc21	64 µg/mL (≈ 135 µM)	256 µg/mL (≈ 538 µM)	256 µg/mL (≈ 538 µM)	256 µg/mL (≈ 538 µM)	128 µg/mL (≈ 269 µM)	256 µg/mL (≈ 538 µM)	256 µg/mL (≈ 538 µM)	128 µg/mL (≈ 269 µM)	16 µg/mL (≈ 33.6 µM)	128 µg/mL (≈ 269 µM)	256 µg/mL (≈ 538 µM)	32 µg/mL (≈ 67.3 µM)	256 µg/mL (≈ 538 µM)	256 µg/mL (≈ 538 µM)	128 µg/mL (≈ 269 µM)	256 µg/mL (≈ 538 µM)
Fc1ccccc1Cn1c(Cn2cnc3c(N4CCOCC4)ncnc32)nc2ccccc21	64 µg/mL (≈ 144 µM)	32 µg/mL (≈ 72.2 µM)	512 µg/mL (≈ 1150 µM)	256 µg/mL (≈ 577 µM)	64 µg/mL (≈ 144 µM)	128 µg/mL (≈ 289 µM)	128 µg/mL (≈ 289 µM)	256 µg/mL (≈ 577 µM)	32 µg/mL (≈ 72.2 µM)	256 µg/mL (≈ 577 µM)	16 µg/mL (≈ 36.1 µM)	64 µg/mL (≈ 144 µM)	256 µg/mL (≈ 577 µM)	256 µg/mL (≈ 577 µM)	64 µg/mL (≈ 144 µM)	64 µg/mL (≈ 144 µM)
c1nc(N2CCOCC2)c2nc[nH]c2n1	256 µg/mL (≈ 1250 µM)	256 µg/mL (≈ 1250 µM)	512 µg/mL (≈ 2490 µM)	512 µg/mL (≈ 2490 µM)	128 µg/mL (≈ 624 µM)	256 µg/mL (≈ 1250 µM)	512 µg/mL (≈ 2490 µM)	256 µg/mL (≈ 1250 µM)	256 µg/mL (≈ 1250 µM)	256 µg/mL (≈ 1250 µM)	512 µg/mL (≈ 2490 µM)	256 µg/mL (≈ 1250 µM)	256 µg/mL (≈ 1250 µM)	256 µg/mL (≈ 1250 µM)	128 µg/mL (≈ 624 µM)	256 µg/mL (≈ 1250 µM)
CCn1c(Cn2cnc3c(N4CCOCC4)ncnc32)nc2ccccc21	128 µg/mL (≈ 352 µM)	128 µg/mL (≈ 352 µM)	256 µg/mL (≈ 704 µM)	256 µg/mL (≈ 704 µM)	256 µg/mL (≈ 704 µM)	256 µg/mL (≈ 704 µM)	256 µg/mL (≈ 704 µM)	128 µg/mL (≈ 352 µM)	256 µg/mL (≈ 704 µM)	256 µg/mL (≈ 704 µM)	256 µg/mL (≈ 704 µM)	128 µg/mL (≈ 352 µM)	256 µg/mL (≈ 704 µM)	256 µg/mL (≈ 704 µM)	128 µg/mL (≈ 352 µM)	256 µg/mL (≈ 704 µM)

From ChEMBL document CHEMBL4219183, “Novel purine benzimidazoles as antimicrobial agents by regulating ROS generation and targeting clinically resistant Staphylococcus aureus DNA groove” (Bioorg Med Chem Lett, 2018)
